Test results from PMC4674085, “Towards Prebiotic Catalytic Amyloids Using High Throughput Screening” (PLoS ONE, 2015).

Columns and labels:
[1] = Time-dependent 4NPA hydrolysis rate during fibrillization; format: biochemical; details: 50 μM peptide, 50 mM HEPES pH 7.3, 0.5 mM ZnCl2, 1 mM 4NPA, derivative of A400
Method: For more direct evidence that the amyloid is the catalytically active state, we attempted to measure the catalysis rate during the aggregation of 35 in order to correlate the amyloid formation with an increase in hydrolytic activity. Since the aggregation is too fast to measure a steady-state hydrolysis rate, an instantaneous time-dependent rate of 4NPA hydrolysis was calculated from the derivative of the A400 measurements (Fig 3A). In parallel, an identical sample was monitored at 218 nm for the β-strand-typical ellipticity (Fig 3C). Note that the absorbance of 50 mM HEPES prevented the measurement of a full spectrum (190–260 nm) under the identical aggregation conditions, however when performed with 10 mM HEPES, the spectrum clearly indicates a move towards increasing β-structure upon mixing the peptide with buffer at pH 7.3 (Figure B in S1 File). […]
Fig 3 Parallel kinetics of fibrillization and hydrolysis activity. Kinetics of fibrillization measured by CD (c) matches the appearance of the 4NPA hydrolysis activity (a). a) A stock of 35 at 200 μM in 10 mM HCl was diluted to a final concentration of 50 μM into 50 mM HEPES pH 7.3 with 0.5 mM ZnCl2 and 1 mM 4NPA. After ca. 10 s mixing time, the hydrolysis of 4NPA was recorded every 1 s for 20 min at 400 nm and the first derivative of this signal (the instantaneous rate) is plotted as a function of time. […]

[2] = Plate reader 4NPA hydrolysis kinetics of purified peptide amyloids at pH 7.3; format: biochemical; details: 4NPA hydrolysis, pH 7.3 HEPES with zinc(II), 20 μM purified peptide
Method: The reaction buffer consisted of the same buffer as the fibrillization buffer without ZnCl2 and with 1.33 mM 4NPA prepared from a 100 mM stock in CH3CN. The samples of the amyloid library were mixed 1:3 with the reaction buffer yielding 40 μM peptide and, when present 250 μM zinc(II). The absorbance measurements were performed in a BMG Pherastar platereader with a 400 nm band-pass filter (10 nm bandwidth) in 96-well Nunclon Delta surface plates or 384-well Greiner Bio-One non-bind black μclear plates.
The kinetics assays performed on the purified peptides were prepared similarly except that the peptide concentration was 20 μM in the reaction. Furthermore, the various substrate concentrations and replicate samples were randomly distributed over the plate to minimize systematic errors. Various 4NPA concentrations (i.e. 0.1 mM, 0.2 mM, 0.4 mM, 0.6 mM, 1.0 mM) were added from a 100 times stock so that the final CH3CN concentration was always 1%. The linear part of the hydrolysis activity was fit with an extinction coefficient of ε = 9700 M^-1cm^-1 and corrected for the background reaction rate of buffer alone (v bg = 5.0 × 10^-6 Ms^-1) to obtain the initial reaction rate v 0. The average of the initial reaction rates at each substrate concentration were then fit to the Michaelis-Menten type kinetics to obtain k cat, K M and k cat/K M always calculated per monomer peptide. The background reaction rate was obtained similarly using 5 replicates.

[3] = Circular dichroism (CD), secondary structure of aggregates; format: physicochemical; details: 50 μM peptide in 10 mM HCl, time-stable spectrum

- CD spectrum in 10 mM HCl [3]: mostly random coil
Substance: Ac-YVHVHVAV-NH2 [Peptide 35, Ac-YVHVHVAV-CONH2]
- activity of the monomeric peptide (by extrapolation to t = 0) [1]: not significantly above the background hydrolysis
- k cat/K M ([2]; 0.1-1.0 mM 4NPA, 1% CH3CN, A400, Michaelis-Menten fit, per monomer peptide, triplicate (duplicate for 8, 27, 34, 35)): 7.38 ± 0.63 M⁻¹ s⁻¹
- K M ([2]; Michaelis-Menten fit): 630 ± 100 µM
- k cat ([2]; Michaelis-Menten fit, per monomer peptide): 0.463±0.039 10^-2s^-1
